Tests used:
[1] = Cytotoxicity against HEK293 cells assessed as reduction in cell viability after 48 hrs by MTT assay; format: toxicity, cell-based; conditions: human
[2] = Selectivity index, ratio of IC50 for mouse RAW264.7 cells to IC50 for antitrypanosomal activity against bloodstream Trypanosoma brucei Lister 427; format: toxicity; conditions: read-out: Ratio IC50
Trypanosoma brucei [3] = assay: Antitrypanosomal activity against bloodstream Trypanosoma brucei Lister 427 assessed as reduction in parasite viability incubated for 48 hrs by MTS assay; format: functional, organism-based; conditions: Lister 427, 48 h
[4] = Selectivity index, ratio of IC50 for HEK293 cells to IC50 for antitrypanosomal activity against bloodstream Trypanosoma brucei Lister 427; format: toxicity; conditions: human, read-out: Ratio IC50
[5] = Cytotoxicity against mouse RAW264.7 cells assessed as reduction in cell viability after 48 hrs by MTT assay; format: toxicity, cell-based
Trypanosoma brucei [6] = assay: Antitrypanosomal activity against Trypanosoma brucei infected in CD1 mouse assessed as reduction in parasite number at 50 mg/kg/day, po administered for 3 days and measured on day 5 by hemocytometer analysis (reference value: 40 10^6/ml; format: functional; conditions: time 5 day
[7] = Acute toxicity in CD1 mouse assessed as change in body weight at 50 mg/kg, po; format: organism-based; conditions: in vivo

Row | SMILES | IC50 at 48 h [1] [µM] | selectivity ratio [2] | IC50 (Trypanosoma brucei [3]) [µM] | selectivity ratio [4] | IC50 at 48 h [5] [µM] | Activity (Trypanosoma brucei [6]) | Activity [7]
1 | COc1cc(NC(=O)c2ccc(C(F)(F)F)cc2C(F)(F)F)ccc1S(N)(=O)=O | > 100 | 0.73 | 81.4 | > 1.22 | 59.1 |  | 
2 | COc1cc(NC(=O)c2ccc3c(c2)OCO3)ccc1S(N)(=O)=O | 8.8 | 4.41 | 10.9 | 0.81 | 48.1 |  | 
3 | COc1cc(NC(=O)c2ccc(C#N)cc2)ccc1S(N)(=O)=O | > 100 | > 26.5 | 4.23 | > 26.5 | > 100 |  | 
4 | COc1cc(NC(=O)c2ccc(OC(F)(F)F)cc2)ccc1S(N)(=O)=O | 35.8 | 0.93 | 36.3 | 0.99 | 33.8 |  | 
5 | COc1cc(NC(=O)c2ccc(SC)cc2)ccc1S(N)(=O)=O | > 100 | < 0.2 | > 100 |  | 19.6 |  | 
6 | COc1cc(NC(=O)c2cccc(I)c2)ccc1S(N)(=O)=O | 48.9 | > 5.16 | 19.4 | 2.53 | > 100 |  | 
7 | COc1cc(NC(=O)c2ccc([N+](=O)[O-])cc2)ccc1S(N)(=O)=O | > 100 | 176 | 3.29 | > 30.4 | 578 |  | 
8 | COc1cc(NC(=O)c2ccccn2)ccc1S(N)(=O)=O | > 100 |  | > 100 |  | > 100 |  | 
9 | COc1cc(NC(=O)c2cccc(Cl)c2)ccc1S(N)(=O)=O | > 100 | 33.5 | 2.73 | > 36.6 | 91.5 |  | 
10 | COc1cc(NC(=O)c2cccc(Br)c2)ccc1S(N)(=O)=O | 48.6 | 1.57 | 13.3 | 3.66 | 20.9 |  | 
11 | COc1cc(NC(=O)c2cccc(C)c2)ccc1S(N)(=O)=O | > 100 | > 3.22 | 31 | > 3.22 | > 100 |  | 
12 | COc1cc(NC(=O)COCC(=O)Nc2ccc(S(N)(=O)=O)c(OC)c2)ccc1S(N)(=O)=O | 98 | 0.95 | 85.2 | 1.15 | 81 |  | 
13 | COc1cc(NC(=O)c2ccc(N(C)C)cc2)ccc1S(N)(=O)=O | > 100 |  | > 100 |  | > 100 |  | 
14 | COc1cc(NC(=O)c2cc(C(F)(F)F)cc(C(F)(F)F)c2)ccc1S(N)(=O)=O | 74.3 | 1.94 | 23.9 | 3.11 | 46.3 |  | 
15 | COc1cc(NC(=O)c2ccc(C)cc2)ccc1S(N)(=O)=O | 17.2 | 0.76 | 70.4 | 0.24 | 53.2 |  | 
16 | COc1cc(NC(=O)c2cccc(C(F)(F)F)c2)ccc1S(N)(=O)=O | > 100 | 2.13 | 35.9 | > 2.78 | 76.7 |  | 
17 | COc1cc(NC(=O)c2ccco2)ccc1S(N)(=O)=O | > 100 | > 10.2 | 9.79 | > 10.2 | > 100 |  | 
18 | COc1cc(NC(=O)c2ccc(Br)cc2)ccc1S(N)(=O)=O | 86.8 | 12.1 | 3.26 | 21.7 | 48.3 |  | 
19 | COc1cc(NC(=O)c2ccc(Cl)c(Cl)c2)ccc1S(N)(=O)=O | 22.4 | 0.62 | 38.6 | 0.58 | 23.8 |  | 
20 | COc1cc(NC(=O)c2cc(OC)c(OC)c(OC)c2)ccc1S(N)(=O)=O | 32.9 | 0.38 | 92.1 | 0.36 | 34.6 |  | 
21 | COc1cc(NC(=O)c2cccc(C#N)c2)ccc1S(N)(=O)=O | > 100 | 1.68 | 20.8 | > 4 | 35 |  | 
22 | COc1cc(NC(=O)c2ccc(Cl)c([N+](=O)[O-])c2)ccc1S(N)(=O)=O | 15.7 | 4.77 | 15.2 | 1.03 | 72.7 |  | 
23 | COc1cc(NC(=O)c2ccc(C)c([N+](=O)[O-])c2)ccc1S(N)(=O)=O | > 100 |  | 7.76 | > 33.3 | 53.1 |  | 
24 | COc1cc(NC(=O)c2ccc3ccccc3c2)ccc1S(N)(=O)=O | 18 | 18.1 | 1 | 17.9 | 18.1 | 10 10^6/ml | Non-Toxic
25 | COc1cccc(C(=O)Nc2ccc(S(N)(=O)=O)c(OC)c2)c1 | > 100 | 38 | 2.99 | > 33.5 | 113 |  | 
26 | COc1cc(NC(=O)c2cc(Cl)cc(Cl)c2)ccc1S(N)(=O)=O | 98 | < 0.81 | > 100 | < 0.98 | 81 |  | 
27 | COc1cc(NC(=O)c2ccc(Cl)cc2)ccc1S(N)(=O)=O | > 100 | 0.94 | 46.6 | > 2.14 | 43.9 |  | 
28 | CCOc1ccc(C(=O)Nc2ccc(S(N)(=O)=O)c(OC)c2)cc1 | > 100 | > 37.3 | 2.68 | > 37.3 | > 100 |  | 
29 | COc1cc(NC(=O)c2ccccc2[N+](=O)[O-])ccc1S(N)(=O)=O | > 100 |  | > 100 |  | > 100 |  | 
30 | CCc1ccc(C(=O)Nc2ccc(S(N)(=O)=O)c(OC)c2)cc1 | 5.69 | 0.64 | 37.2 | 0.15 | 23.9 |  | 
